Source: patent US20120058997A1, “IMIDAZO[1,2-B]PYRIDAZINE AND PYRAZOLO[1,5-A]PYRIMIDINE DERIVATIVES AND THEIR USE AS PROTEIN KINASE INHIBITORS” (SuperGen, Inc., priority 2006, published 2012)
“And” between values parts separate entries of the source, which are not always exact repeats. Identical values can stand only once. Like-named read-outs stand apart in the source and are kept apart here.

Legend:
[1] = biological target: Pim-1 kinase (Homo sapiens, UniProt P11309); test: Promega Kinase-Glo Pim-1 kinase inhibition assay; type: biochemical;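 further: in vitro Pim-1 reaction run 2 h at 30 °C, then leftover ATP measured by luciferase luminescence, where signal falls as kinase activity rises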
Chain of Pim-1 kinase (P11309 whole entry): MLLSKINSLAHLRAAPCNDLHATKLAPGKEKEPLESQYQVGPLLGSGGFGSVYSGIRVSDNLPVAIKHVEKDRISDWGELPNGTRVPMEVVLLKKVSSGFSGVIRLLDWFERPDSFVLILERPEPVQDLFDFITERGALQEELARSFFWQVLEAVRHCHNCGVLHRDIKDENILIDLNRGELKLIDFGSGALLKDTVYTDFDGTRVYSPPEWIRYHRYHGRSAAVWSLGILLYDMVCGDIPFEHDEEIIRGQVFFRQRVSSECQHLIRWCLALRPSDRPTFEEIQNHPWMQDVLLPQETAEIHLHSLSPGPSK

[2] = system: K562 Cells; test: Cell growth inhibition, Cell-Titer-Glo, 96 hours; type: cell-based; settings: Homo sapiens;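 further: luminescent ATP signal as an index of viable cell number, drug-treated versus cells given an equal volume of DMSO vehicle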
[3] = system: PC-3 Cells; test: Cell growth inhibition, Cell-Titer-Glo, 96 hours; type: cell-based; settings: Homo sapiens;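 further: luciferase luminescence reflecting cellular ATP, used as a proxy for cell number, with compound-treated cells compared against DMSO vehicle control wells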
[4] = Table VIII (results), values in nM, read-out: IC50(Kinase)
[5] = K562, Table IX (results), read-out: IC50 (K562)
[6] = Table IX (results), read-out: IC50 (PC-3)
[7] = Table X, Kinase-Glo, read-out: IC50 on Pim1

Row | SMILES | IC50 [2, 5] [nM] | IC50 [1, 7] [nM] | other results
1 | Cc1cc2ncc(-c3cccc(OC(F)(F)F)c3)n2nc1OCC1CCN(C)CC1 [Compound 7-34, 7-methyl-6-((1-methylpiperidin-4-yl)methoxy)-3-(3(trifluoromethoxy)phenyl) imidazo[1,2-b]pyridazine] | 1730 |  | IC50 [1, 4]: 272 nM; IC50 [3, 6]: 7210 nM
2 | CN1CCC(CCNc2ccc3ncc(-c4cc(OC(F)(F)F)ccc4O)n3n2)CC1 [Compound 7-45, 3-(2-Hydroxyl-5-(trifluoromethoxy)phenyl)-N-(2-(1-methylpiperidin-4-yl)ethyl)-imidazo[1,2-b]pyridazin-6-amine] | 14900 |  | IC50 [3, 6]: 52000 nM
3 | CN1CCC(COc2ccc3ncc(-c4cccc(OC(F)(F)F)c4)n3n2)CC1 [Compound 7-33, 6-((1-methylpiperidin-4-yl)methoxy)-3-(3-(trifluoromethoxy)phenyl)imidazo[1,2-b]pyridazine] | 5990 |  | IC50 [1, 4]: 405 nM and 282 nM; IC50 [3, 6]: 14400 nM
4 | CN1CCC(CNc2ccc3ncc(-c4cc(OC(F)(F)F)ccc4O)n3n2)CC1 [Compound 7-43, 3-(2-hydroxy-5-(trifluoromethoxy)phenyl)-N-((1-methylpiperidin-4-yl)methyl)-imidazo[1,2-b]pyridazin-6-amine] | 4900 |  | IC50 ([1]; Table VIII (results), values in uM, read-out: IC50(Kinase)): 1100 nM
5 | CCN1CCC(CNc2nn3c(-c4cccc(OC(F)(F)F)c4)cnc3cc2C)CC1 [Compound 7-38, N-((1-ethylpiperidin-4-yl)methyl)-7-methyl-3-((trifluoromethoxy)phenyl)imidazo [1,2-b]pyridazin-6-amine] | 1410 |  | IC50 [3, 6]: 5680 nM
6 | Cc1ccc(S(=O)(=O)Nc2ccc(Nc3ccn4ncc(-c5cccc(N)c5)c4n3)cc2)cc1 [Compound 3-9] |  |  | IC50 ([2]; K562, read-out: IC50 K562 Cells (inhibit cell growth to 50% of untreated), Table VI): 20600 nM; IC50 ([3]; read-out: IC50 PC-3 Cells (inhibit cell growth to 50% of untreated), Table VI): 12000 nM
7 | COc1ccc(OC(F)(F)F)cc1-c1cnc2ccc(NCC3CCN(C)CC3)nn12 [Compound 7-42, 3-(2-methoxy-5-(trifluoromethoxy)phenyl)-N-((1-methylpiperidin-4-yl)methyl)-imidazo[1,2-b]pyridazin-6-amine] | 9600 |  | IC50 [3, 6]: 8960 nM
8 | COc1ccc(OC(F)(F)F)cc1-c1cnc2ccc(NCCC3CCN(C)CC3)nn12 [Compound 7-44, 3-(2-methoxy-5-(trifluoromethoxy)phenyl)-N-(2-(1-methylpiperidin-4-yl)ethyl)-imidazo[1,2-b]pyridazin-6-amine] | 5700 |  | IC50 [3, 6]: 17700 nM
9 | CC(C)N1CCC(CNc2ccc3ncc(-c4cccc(OC(F)(F)F)c4)n3n2)CC1 [Compound 7-35, N-((1-isopropylpiperidin-4-yl)methyl)-3-(3(trifluoromethoxy)phenyl)imidazo[1,2b]pyridazin-6-amine] | 2920 |  | IC50 [3, 6]: 12800 nM
10 | CCN1CCC(CNc2ccc3ncc(-c4cccc(OC(F)(F)F)c4)n3n2)CC1 [Compound 7-39, N-((1-ethylpiperidin-4-yl)methyl)-3-(3-(trifluoromethoxy)phenyl)imidazo[1,2-b]pyridazin-6-amine] | 1660 |  | IC50 [3, 6]: 5820 nM
11 | NCC1CCN(c2ccc3ncc(-c4cccc(OC(F)(F)F)c4)n3n2)C(=O)C1 (centres unmarked) [Compound 8-24, 4-(Aminomethyl)-1-(3-(3-(trifluoromethoxy)phenyl)imidazo[1,2-b]pyridazin-6-yl)piperidin-2-one] |  | 10 to 100 | 
12 | O[C@H]1CC[C@H](Oc2ccc3ncc(-c4cccc(OC(F)(F)F)c4)n3n2)CC1 [Compound 8-4, 4-((3-(3-(Trifluoromethoxy)phenyl)imidazo[1,2-b]pyridazin-6-yl)oxy)-trans-cyclohexanol] |  | < 10 | 
13 | C[C@]1(O)CC[C@H](Nc2ccc3ncc(-c4cccc(Cl)c4)n3n2)CC1 [Compound 8-36, 4-((3-(3-Chlorophenyl)imidazo[1,2-b]pyridazin-6-yl)amino)-1-methyl-trans-cyclohexanol] |  | 100 to 1000 | 
14 | CO[C@H]1CC[C@H](Nc2ccn3ncc(-c4cccc(OC(F)(F)F)c4)c3n2)CC1 [Compound 8-49, 4-(trans-Methoxycyclohexyl)-3-(3-(trifluoromethoxy)phenyl)pyrazolo[1,5-a]pyrimidin-5-amine] |  | 100 to 1000 | 
15 | C[C@]1(O)CC[C@H](Nc2ccc3ncc(-c4cccc(OC(F)(F)F)c4)n3n2)CC1 [Compound 8-9, 1-Methyl-4-((3-(3-(trifluoromethoxy)phenyl)imidazo[1,2-b]pyridazin-6-yl)amino)-trans-cyclohexanol] |  | 10 to 100 | 
16 | FC(F)(F)Oc1cccc(-c2ccc3ncc(-c4cccc(OC(F)(F)F)c4)n3n2)c1 [Compound 7-13] | 19100 |  | IC50 [3, 6]: 63200 nM
17 | CO[C@H]1CC[C@H](Nc2ccc3ncc(-c4cccc(C(F)(F)F)c4)n3n2)CC1 [Compound 8-32, 4-(trans-Methoxycyclohexyl)-3-(3-(trifluoromethyl)phenyl)imidazo[1,2-b]pyridazin-6-amine] |  | 100 to 1000 | 
18 | O[C@H]1C[C@H](CNc2ccc3ncc(-c4cccc(OC(F)(F)F)c4)n3n2)C1 [Compound 8-7, 3-(((3-(3-(Trifluoromethoxy)phenyl)imidazo[1,2-b]pyridazin-6-yl)amino)methyl)-trans-cyclobutanol] |  | 10 to 100 | 
19 | COCCOc1ccc2ncc(-c3cccc(OC(F)(F)F)c3)n2n1 [Compound 8-42, 6-(2-Methoxyethoxy)-3-(3-(trifluoromethoxy)phenyl)imidazo[1,2-b]pyridazine] |  | 1000 to 5000 | 

Row | SMILES | IC50 [2, 5] [nM] | IC50 [1, 7] [nM] | other results
20 | O=S1(=O)CCC(CNc2ccn3ncc(-c4cccc(OC(F)(F)F)c4)c3n2)CC1 [Compound 8-51, 4-(((3-(3-(Trifluoromethoxy)phenyl)pyrazolo[1,5-a]pyrimidin-5-yl)amino)methyl)tetrahydro-2H-thiopyran 1,1-dioxide] |  | 100 to 1000 | 
21 | N[C@H]1CC[C@H](Nc2ccc3ncc(-c4cccc(Cl)c4)n3n2)CC1 [Compound 8-68] |  | 10 to 100 | 
22 | FC(F)(F)Oc1cccc(-c2cnc3ccc(NCC4CCSCC4)nn23)c1 [Compound 8-18, N-((tetrahydro-2H-thiopyran-4-yl)methyl)-3-(3-(trifluoromethoxy)phenyl)imidazo[1,2-b]pyridazin-6-amine] |  | 1000 to 5000 | 
23 | O=S1(=O)CCC(CNc2ccn3ncc(-c4cccc(Cl)c4)c3n2)CC1 [Compound 8-66] |  | 100 to 1000 | 
24 | FC(F)(F)c1cccc(-c2cnn3ccc(NC4CCOCC4)nc23)c1 [Compound 8-58, N-(Tetrahydro-2H-pyran-4-yl)-3-(3-(trifluoromethyl)phenyl)pyrazolo[1,5-a]pyrimidin-5-amine] |  | 100 to 1000 | 
25 | CO[C@H]1CC[C@H](Nc2ccn3ncc(-c4cccc(C(F)(F)F)c4)c3n2)CC1 [Compound 8-57, 4-(trans-Methoxycyclohexyl)-3-(3-(trifluoromethyl)phenyl)pyrazolo[1,5-a]pyrimidin-5-amine] |  | 10 to 100 | 
26 | CCN1CCC(CNc2ccc3ncc(-c4cc(OC(F)(F)F)ccc4OC)n3n2)CC1 [Compound 7-46, N-((1-ethylpiperidin-4-yl)methyl)-3-(2-methoxy-5-(trifluoromethoxy)phenyl)-imidazol[1,2-b]pyridazin-6-amine] | 5300 |  | IC50 [3, 6]: 10600 nM
27 | CO[C@H]1CC[C@H](Nc2ccc3ncc(-c4cccc(Cl)c4)n3n2)CC1 [Compound 8-38, 3-(3-Chlorophenyl)-N-(4-trans-methoxycyclohexyl)imidazo[1,2-b]pyridazin-6-amine] |  | 10 to 100 | 
28 | CC(C)(O)[C@H]1CC[C@H](Nc2ccc3ncc(-c4cccc(OC(F)(F)F)c4)n3n2)CC1 [Compound 8-10] |  | < 10 | 
29 | CC(C)(O)C(=O)N1CCC(CNc2ccc3ncc(-c4cccc(OC(F)(F)F)c4)n3n2)CC1 [Compound 8-20, 2-Hydroxy-2-methyl-1-(4-(((3-(3-(trifluoromethoxy)phenyl)imidazo[1,2-b]pyridazin-6-yl)amino)methyl)piperidin-1-yl)propan-1-one] |  | 10 to 100 | 
30 | FC1(F)CCC(CNc2ccc3ncc(-c4cccc(OC(F)(F)F)c4)n3n2)CC1 [Compound 8-17, N-((4,4-difluorocyclohexyl)methyl)-3-(3-(trifluoromethoxy)phenyl)imidazo[1,2-b]pyridazin-6-amine] |  | 1000 to 5000 | 
31 | O=S1(=O)CCC(Nc2ccc3ncc(-c4cccc(OC(F)(F)F)c4)n3n2)CC1 [Compound 8-14, 4-((3-(3-(Trifluoromethoxy)phenyl)imidazo[1,2-b]pyridazin-6-yl)amino)tetrahydro-2H-thiopyran 1,1-dioxide] |  | 1000 to 5000 | 
32 | C[C@]1(O)CC[C@H](Nc2ccc3ncc(-c4cccc(C(F)(F)F)c4)n3n2)CC1 [Compound 8-30, 1-Methyl-4-((3-(3-(trifluoromethyl)phenyl)imidazo[1,2-b]pyridazin-6-yl)amino)-trans-cyclohexanol] |  | 10 to 100 | 
33 | CC(C)O[C@H]1CC[C@H](Nc2ccc3ncc(-c4cccc(OC(F)(F)F)c4)n3n2)CC1 [Compound 8-16, 4-(trans-Isopropoxycyclohexyl)-3-(3-(trifluoromethoxy)phenyl)imidazo[1,2-b]pyridazin-6-amine] |  | 100 to 1000 | 
34 | CC(C)(O)[C@H]1CC[C@H](Nc2ccn3ncc(-c4cccc(C(F)(F)F)c4)c3n2)CC1 [Compound 8-56] |  | 10 to 100 | 
35 | FC(F)(F)c1cccc(-c2cnc3ccc(NC4CCOCC4)nn23)c1 [Compound 8-33, N-(Tetrahydro-2H-pyran-4-yl)-3-(3-(trifluoromethyl)phenyl)imidazo[1,2-b]pyridazin-6-amine] |  | 10 to 100 | 
36 | COc1ccc(OC(F)(F)F)cc1-c1cnc2ccc(NCC3CCN(C(C)C)CC3)nn12 [Compound 7-48, N-((1-isopropylpiperidin-4-yl)methyl)-3-(2-methoxy-5-(trifluoromethoxy)phenyl)-imidazo[1,2-b]pyridazin-6-amine] | 5700 |  | IC50 [3, 6]: 17700 nM
37 | CC[C@@H](N)COc1ccc2ncc(-c3cccc(OC(F)(F)F)c3)n2n1 [Compound 7-18, (R)-1-(3-(3-(trifluoromethoxy)phenyl)imidazo[1,2-b]pyridazin-6-yloxy)butan-2-amine] | 5820 |  | IC50 [1, 4]: 481 nM
